According to patent US8912150B2, “Ribosome structure and protein synthesis inhibitors” (Rib-X Pharmaceuticals, Inc., priority 2001, dated 2014):

Experiments:
ribosomes [1] = settings: S. pneumoniae; cited from earlier work
[2] = biological target: rabbit reticulocyte lysate; test: Translation inhibition in rabbit reticulocyte lysate system (luciferase mRNA); format: biochemical
E. coli S30 extract = format: biochemical
ribosomes [3] = settings: macrolide-poisoned ribosomes; cited from earlier work
[4] = system: ribosome peptidyl transferase; settings: cited from earlier work

**Q.** Which “ribosome binding relative to erythromycin” value (ribosomes [1]) does the source give for `CC[C@H]1OC(=O)[C@H](C)C(=O)[C@H](C)[C@@H](O[C@@H]2O[C@H](C)C[C@H](N(C)C)[C@H]2O)[C@](C)(OCC=Cc2cnc3ccccc3c2)C[C@@H](C)C(=O)[C@H](C)[C@H]2NC(=O)O[C@@]21C` [ABT-773] here?
**A.** binds ribosomes tighter than erythromycin

**Q.** With `COc1ccc(C[C@H]2NC[C@H](O)[C@H]2OC(C)=O)cc1` [anisomycin] as the compound, how does the IC50 [2] read?
**A.** 0.19 µM

**Q.** And the IC50 (E. coli S30 extract)?
**A.** > 100 µM

**Q.** Which “length of oligopeptides synthesized in presence of macrolide” value (“length of oligopeptides synthesized” below) (ribosomes [3]) does the source give for `CO[C@@H]1[C@@H](O[C@@H]2O[C@H](C)[C@@H](O[C@H]3C[C@@](C)(O)[C@@H](OC(=O)CC(C)C)[C@H](C)O3)[C@H](N(C)C)[C@H]2O)[C@@H](CC=O)C[C@@H](C)C(=O)/C=C/[C@@H]2O[C@H]2C[C@@H](C)OC(=O)C[C@H]1OC(C)=O` [carbomycin A] here?
**A.** strongly inhibits the formation of even the first peptide bond

**Q.** For `O=C(N[C@H](CO)[C@H](O)c1ccc([N+](=O)[O-])cc1)C(Cl)Cl` [chloramphenicol], which IC50 [2] is on record?
**A.** > 100 µM

**Q.** And the IC50 (E. coli S30 extract)?
**A.** 12.3 µM

**Q.** Which “length of oligopeptides synthesized” value (ribosomes [3]) does the source give for `CC[C@H]1OC(=O)[C@H](C)[C@@H](O[C@H]2C[C@@](C)(OC)[C@@H](O)[C@H](C)O2)[C@H](C)[C@@H](O[C@@H]2O[C@H](C)C[C@H](N(C)C)[C@H]2O)[C@](C)(O)C[C@@H](C)C(=O)[C@H](C)[C@@H](O)[C@]1(C)O` [erythromycin] here?
**A.** permit the formation of tetrapeptides

**Q.** For `CC[C@H]1OC(=O)C[C@@H](O)[C@H](C)[C@@H](O[C@@H]2O[C@H](C)[C@@H](O[C@H]3C[C@@](C)(O)[C@@H](O)[C@H](C)O3)[C@H](N(C)C)[C@H]2O)[C@@H](CC=O)C[C@@H](C)C(=O)/C=C/C(C)=C/[C@@H]1CO[C@@H]1O[C@H](C)[C@@H](O)[C@@H](OC)[C@H]1OC` [tylosin], which “length of oligopeptides synthesized” value (ribosomes [3]) is on record?
**A.** allow formation of only dipeptides

**Q.** What does the source list for CCdA-phosphate-puromycin [CCdA-p-Puro]?
**A.** binding to the ribosome [4]: binds tightly to the ribosome; inhibition of peptidyl transferase activity [4]: inhibits its peptidyl transferase activity

**Q.** Which “length of oligopeptides synthesized” value (ribosomes [3]) does the source give for spiramycin here?
**A.** allow formation of only dipeptides
